Experimental data from US20120244230A1, “POLYVALENT POLYNUCLEOTIDE NANOPARTICLE CONJUGATES AS DELIVERY VEHICLES FOR A CHEMOTHERAPEUTIC AGENT” (priority 2009, published 2012).

Experiments:
[1] = Cyclic voltammetry, reduction potential of the Pt(IV) complex; format: physicochemical; conditions: Ag/AgCl reference, 25° C.
Description: The conjugate was designed to release a cytotoxic dose of cisplatin upon intracellular reduction. An ideal Pt(IV) complex should be sufficiently stable to travel through the blood stream until it reaches a tumor cell without decomposition. Once inside the cell, however, it should have an appropriate reduction potential such that it will be reduced and release its cytotoxic payload. Electrochemical measurements were made at 25° C. on a EG&G PAR Model 263 Potentiostat/Galvanostat with electrochemical analysis software 270 and a three electrode set-up comprising a glassy carbon working electrode, platinum wire auxiliary electrode and a Ag/AgCl reference electrode. The electrochemical data were uncorrected for junction potentials. KCl was used as a supporting electrolyte.

A549 cells = test system: A549 cells
Description: (§1) Human cervical cancer HeLa, human osteosarcoma U2OS, human prostate PC3 cell lines were procured from the ATCC. A549 lung carcinoma cells were obtained from Prof. David E. Root, Whitehead Institute for Biomedical Research. HeLa, U2OS, and A549 Cells were grown at 37° C. in 5% CO2 in DMEM medium supplemented with 10% fetal bovine serum and 1% penicillin/streptomycin. PC3 cells were grown at 37° C. in 5% CO2 in RPMI supplemented with 10% fetal bovine serum and 1% penicillin/streptomycin. Cells were passed every 3 to 4 days and restarted from frozen stocks upon reaching pass number 20.
(§2) In order to investigate the efficacy of Pt-DNA-Au NPs, their ability to kill cancer cells of various origin was measured. […] Cells were seeded on a 96 well plate in 100 μL media and incubated for 24 hours. The cells were then treated with Pt-DNA-Au NP, 1, or cisplatin, separately at varying concentrations and incubated for 72 hours at 37° C. Medium was removed, cells were washed with PBS and then incubated with cell culture medium containing 20% 3-(4,5-dimethylthiazol-2-yl)-2,5-diphenyltetrazolium bromide (MTT). […] Cells were further incubated overnight and the absorbance was measured at 620 nm using a BioTek Synergy HT multi-detection microplate plate reader. […]

PC3 cells = test: MTT cytotoxicity assay, PC3
Description: as §1, §2

U2OS cells = test: MTT cytotoxicity assay, U2OS; format: cell-based, human; conditions: 72 hour treatment
Description: as §1, §2

[NH2][Pt]([NH2])([OH])([Cl])([Cl])[O]C(=O)CCC(=O)O [Compound 1, c,c,t-[Pt(NH3)2Cl2(OH)(O2CCH2CH2CO2H)]]
reduction potential ([1]; pH 6.0, phosphate buffer-0.1 M KCl): −0.42 V
reduction potential ([1]; pH 7.4, phosphate buffer-0.1 M KCl, extrapolated to 0.0 mV s-1 scan rate): −0.49 V
cytotoxicity (in words) (A549 cells): did not show any significant killing
cytotoxicity (in words) (PC3 cells): did not show any significant killing

N.N.[Cl][Pt][Cl] [cisplatin, cis-diamminedichloroplatinum(II), reference compound]
IC50 (U2OS cells): 5.1 µM
IC50 (PC3 cells; PC3 cells, 72 hour treatment, MTT): 4.6 µM
